The test system of this test is Erysiphe graminis. Put plainly: Test for preventive effect on wheat powdery mildew. It counts as in vivo. The conditions noted are these: wheat (Norin-61-go) seedlings, 500 ppm active ingredient, preventive treatment; diseased area of first leaves 10 days after inoculation with Erysiphe graminis. As for the experimental part: Test for Preventive Effect on Wheat Powdery Mildew 9 Wheat seeds (variety: Norin-61-go) were sown in each 9 cm×9 cm polyvinyl chloride pot, grown in a greenhouse for 8 days, then treated with 10 ml per pot of aqueous solutions of wettable powders prepared in accordance with Formulation Example 2, at a concentration of 500 ppm in terms of the active ingredients and dried in the air. Then, the seedlings were inoculated with Erysiphe graminis spores by sprinkle over the plant and placed in a greenhouse of from 20 to 25° C. 10 days after the inoculation, the total diseases area of the first leaves in each pot was observed and evaluated on the basis of the standards shown in Table 67. [table]

The structures appear in SMILES notation.

With `CNc1nc2cc(Cl)ccc2n1-c1nc(OC)nc(OC)n1` [Compound I-375], the Biological effectiveness entry was “A (No diseased area)”.
Regarding `COc1nc(OC)nc(-n2c(N(C)C)nc3cc(Cl)ccc32)n1` [Compound I-376], the Biological effectiveness entry is given as “B (Diseased area of less than 25%)”.
Then `COCc1nc2cc(Cl)ccc2n1-c1nc(OC)nc(OC)n1` [Compound I-377], with “A (No diseased area)”; and `COc1nc(OC)nc(-n2c(-c3ccccc3)nc3cc(Cl)ccc32)n1` [Compound I-378], with “A (No diseased area)”.
The entry for `COc1nc(OC)nc(-n2c(Cc3ccccc3)nc3cc(Cl)ccc32)n1` [Compound I-379] is “A (No diseased area)”.
Then `COc1cc(OC)nc(-n2c(C#N)nc3cc(Cl)ccc32)n1` [Compound I-380], with “A (No diseased area)”; and `COc1cc(OC)nc(-n2c(C#N)nc3cc(C)ccc32)n1` [Compound I-381], with “A (No diseased area)”.
Regarding `COc1cc(OC)nc(-n2c(SC)nc3cc(Cl)ccc32)n1` [Compound I-388], the Biological effectiveness result is “A (No diseased area)”.
Turning to `COc1cc(OC)nc(-n2c(SC)nc3cc(C)ccc32)n1` [Compound I-389], the Biological effectiveness result is reported as “B (Diseased area of less than 25%)”.
The entry for `COc1nc(OC)nc(-n2c(SC)nc3cc(Cl)ccc32)n1` [Compound I-394] is “A (No diseased area)”.
The entry for `COc1cc(OC)nc(-n2c(C(Cl)(Cl)Cl)nc3cc(Cl)ccc32)n1` [Compound I-400] is “A (No diseased area)”; for `COc1cc(OC)nc(-n2c(C(Cl)(Cl)Cl)nc3ccc(C)cc32)n1` [Compound I-404] it is “B (Diseased area of less than 25%)”; for `COc1nc(OC)nc(-n2c(C(Cl)(Cl)Cl)nc3cc(Cl)ccc32)n1` [Compound I-405] it is “A (No diseased area)”.
On to `COc1nc(OC)nc(-n2c(C(Cl)(Cl)Cl)nc3cc(C)ccc32)n1` [Compound I-406], for which the Biological effectiveness entry is “A (No diseased area)”.
Then `COc1cc(OC)nc(-n2c(S(C)(=O)=O)nc3cc(Cl)ccc32)n1` [Compound I-423], with “A (No diseased area)”; and `COc1cc(OC)nc(-n2c(S(C)(=O)=O)nc3cc(C)ccc32)n1` [Compound I-424], with “A (No diseased area)”; and `CCOc1nc(OC)nc(-n2c(C)nc3cc(Cl)ccc32)n1` [Compound I-438], with “A (No diseased area)”.
Regarding `CCOc1cc(OCC)nc(-n2cnc3ccccc32)n1` [Compound I-457], the Biological effectiveness result is on record as “B (Diseased area of less than 25%)”.
The entry for `CCOc1cc(OCC)nc(-n2c(Cl)nc3ccccc32)n1` [Compound I-458] is “A (No diseased area)”; for `CCOc1cc(OCC)nc(-n2c(C)nc3ccccc32)n1` [Compound I-461] it is “A (No diseased area)”; for `CCOc1cc(OCC)nc(-n2c(CC)nc3ccccc32)n1` [Compound I-462] it is “B (Diseased area of less than 25%)”.
Turning to `CCOc1cc(OCC)nc(-n2c(C(F)(F)F)nc3ccccc32)n1` [Compound I-465], the Biological effectiveness result is listed as “B (Diseased area of less than 25%)”.
The entry for `CCOc1cc(OCC)nc(-n2cnc3cc(F)ccc32)n1` [Compound I-479] is “A (No diseased area)”.
The entry for `CCOc1cc(OCC)nc(-n2cnc3cc(Cl)ccc32)n1` [Compound I-480] is “A (No diseased area)”; for `CCOc1cc(OCC)nc(-n2cnc3cc(C)ccc32)n1` [Compound I-482] it is “A (No diseased area)”.
Take `CCOc1cc(OCC)nc(-n2cnc3cc(C(F)(F)F)ccc32)n1` [Compound I-483]: the Biological effectiveness entry is listed as “A (No diseased area)”.
`CCOc1cc(OCC)nc(-n2cnc3ccc(Cl)cc32)n1` [Compound I-486]: the Biological effectiveness result was “A (No diseased area)”.
Turning to `CCOc1nc(OCC)nc(-n2cnc3cc(Br)ccc32)n1` [Compound I-490], the Biological effectiveness entry was “A (No diseased area)”.
For `CCOc1cc(OCC)nc(-n2c(C)nc3cc(F)ccc32)n1` [Compound I-498], the Biological effectiveness result is given as “A (No diseased area)”.
Then `CCOc1cc(OCC)nc(-n2c(C)nc3cc(Cl)ccc32)n1` [Compound I-499], with “A (No diseased area)”.
With `CCOc1cc(OCC)nc(-n2c(C)nc3cc(C)ccc32)n1` [Compound I-501], the Biological effectiveness result is “A (No diseased area)”.
Then `CCOc1cc(OCC)nc(-n2c(C)nc3cc(C(F)(F)F)ccc32)n1` [Compound I-502], with “A (No diseased area)”; and `CCOc1cc(OCC)nc(-n2c(C)nc3cc(OC)ccc32)n1` [Compound I-503], with “A (No diseased area)”.
The entry for `CCOc1cc(OCC)nc(-n2c(C)nc3ccc(F)cc32)n1` [Compound I-507] is “A (No diseased area)”; for `CCOc1cc(OCC)nc(-n2c(C)nc3ccc(Cl)cc32)n1` [Compound I-508] it is “B (Diseased area of less than 25%)”.
As for `CCOc1cc(OCC)nc(-n2c(C)nc3ccc(C(F)(F)F)cc32)n1` [Compound I-510], the Biological effectiveness result was “A (No diseased area)”.
`CCOc1cc(OCC)nc(-n2c(C)nc3ccc(OC)cc32)n1` [Compound I-511]: the Biological effectiveness entry is listed as “A (No diseased area)”.
Then `CCOc1nc(OCC)nc(-n2c(C)nc3cc(Cl)ccc32)n1` [Compound I-514], with “A (No diseased area)”; and `CCOc1nc(OCC)nc(-n2c(C)nc3cc(Br)ccc32)n1` [Compound I-515], with “A (No diseased area)”; and `CCOc1nc(OCC)nc(-n2c(C)nc3cc(C)ccc32)n1` [Compound I-516], with “A (No diseased area)”.
`CCOc1cc(OCC)nc(-n2c(Cl)nc3cc(C)ccc32)n1` [Compound I-530]: the Biological effectiveness entry is “A (No diseased area)”.
Regarding `CCOc1cc(OCC)nc(-n2c(Cl)nc3cc(OC)ccc32)n1` [Compound I-531], the Biological effectiveness entry is on record as “A (No diseased area)”.
Then `CCOc1nc(OCC)nc(-n2c(Cl)nc3cc(Cl)ccc32)n1` [Compound I-534], with “A (No diseased area)”.
In the case of `CCOc1nc(OCC)nc(-n2c(C(F)(F)F)nc3cc(C)ccc32)n1` [Compound I-543], the Biological effectiveness entry is on record as “A (No diseased area)”.
The entry for `CCOc1nc(OCC)nc(-n2c(C(F)(F)F)nc3cc(OC)ccc32)n1` [Compound I-544] is “A (No diseased area)”.
Then `CCOc1nc(OCC)nc(-n2c(C(F)(F)F)nc3cc(Cl)ccc32)n1` [Compound I-545], with “A (No diseased area)”.
Then `CCOc1nc(OCC)nc(-n2c(C(F)(F)F)nc3cc(Br)ccc32)n1` [Compound I-546], with “A (No diseased area)”; and `CCOc1nc(OCC)nc(-n2c(C(Cl)(Cl)Cl)nc3cc(Cl)ccc32)n1` [Compound I-550], with “A (No diseased area)”.
On to `CCOc1cc(OCC)nc(-n2c(S(C)(=O)=O)nc3cc(Cl)ccc32)n1` [Compound I-573], for which the Biological effectiveness result was “B (Diseased area of less than 25%)”.
